Earlier results as cited in patent US20220000967A1, “SYNTHETIC PEPTIDES INDUCING IMMUNOGENIC CELL DEATH” (SORBONNE UNIVERSITE, priority 2018, published 2022).

Test system: murine B78 melanoma cells
Settings: melphalan killed B78 cells injected, re-challenged 10 days later with B78 viable cells; cited from earlier work

N[C@@H](Cc1ccc(N(CCCl)CCCl)cc1)C(=O)O [melphalan]
mice without tumor: 40%
